# Assays:
# Benzold-Jarisch reflex = assay: Inhibition of Benzold-Jarisch reflex (bradycardic response to 2-methyl-5-hydroxytryptamine in anesthetized rats); assay type: in vivo, Male Sprague-Dawley rats; conditions: dose 3.2 μg/kg iv, given 5 minutes before 2-methyl-5-hydroxytryptamine (32 ug/kg, iv), urethane-anesthetized rats
# Description: (A) Inhibition of Benzold-Jarisch reflex
# Male Sprague-Dawley rats weighing 260-350 g were anesthetized intraperitoneally with 1.25 g/kg urethane.
# Blood pressure and heart rate were monitored continuously from the left common carotid artery with a pressure transducer. A right femoral vein was connulated for the intravenous injection (iv) of drugs. The trachea was also connulated to ease the respiration.
# Rats were given a rapid bolus injection of 2-methyl-5-hydroxytryptamine (32 u.g/kg, iv) to establish the control bradycardic response. Once the heart rate returned to base line, the .rats were given the test compound (iv), followed by 5-minutes interval and another bolus injection of 2-methyl-5-hydroxytryptamine (32 ug/kg, iv).
# [1] = tested on: Cisplatin-induced vomiting; assay: Inhibition of Cisplatin-induced vomiting; assay type: in vivo, female beagles; conditions: dose 100 μg/kg intravenously twice, 10 minutes prior to and 90 minutes after Cisplatin (3.2 mg/kg, iv); observed up to 5 hours
# Experimental: (B) Inhibition of Cisplatin-induced vomiting
# Nonfasted female beagles weighing about 10 kg were administered test compound or saline intravenously twice 10 minutes prior to and 90 minutes after Cisplatin dosing (3.2 mg/kg, iv).
# Cisplatin was dissolved in 0.9% warm saline with a final concentration of 3 mgiml and used immediately.
compound,measurement,setting,value
"Cc1cn(C(=O)CC2CC3CCC(C2)N3C)c2ccccc12.Cl (centres unmarked) [Example 2, 3-methyl-1-[(8-methyl-8-azabicyclo[3.2.1]oct-3-yl)acetyl]indole hydrochloride]",Inhibition (%),Benzold-Jarisch reflex,52.9%
same,Inhibition (%),[1],95.2%

# Source: patent publication EP0403882A2, “Indole derivatives and processes for preparation thereof” (FUJISAWA PHARMACEUTICAL CO., LTD., priority 1989, dated 1990)
